Literature values, collected in patent US11135271B2, “Glucagon derivatives with improved stability” (HANMI PHARM. CO., LTD., priority 2014, dated 2021).

Legend:
[1] = when taken for 1 year
[2] = according to reports

## CCCCCCCCCCC[C@@H](C[C@@H]1OC(=O)[C@H]1CCCCCC)OC(=O)[C@H](CC(C)C)NC=O [Orlistat]
[1]
  weight loss: about 4 kg

## Cc1c(C(=O)NN2CCCCC2)nn(-c2ccc(Cl)cc2Cl)c1-c1ccc(Cl)cc1 [Rimonabant]
[2]
  side-effect: central nervous system disorder

## CC(C)CC(N(C)C)C1(c2ccc(Cl)cc2)CCC1 (stereo not drawn) [Sibutramine]
[2]
  side-effect: cardiovascular side-effects
